For 22 molecules, IC90 results are on record in patent publication US11390604B2 (Hoffmann-La Roche Inc., priority 2019, dated 2022).

The subject of the test is Acinetobacter baumannii ATCC 17961. Nature of the test: Antimicrobial susceptibility testing: 90% growth inhibitory concentration (IC90) determination. The class given is cell-based. In a few lines: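 Growth was followed kinetically by OD600 at 20-min intervals for 16 h at 35±2 °C, with ~5×10^5 CFU/ml in Iso-Sensitest broth. Compounds were tested as twofold dilutions (e.g. 50–0.097 μM final). The concentration giving 90% inhibition of log-phase growth was reported.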

Setting [1] is: ATCC17961, Acinetobacter baumannii ATCC 17961, Iso-Sensitest broth, read-out: ATCC 17961 IC90.

Structures are written as SMILES. Structures can show the parent of a compound that is named as a salt. Where two headings read alike, the source gives them in different places.

Regarding `Cn1c(-c2cn([C@H]3CC3(F)F)nc2C(F)(F)F)cnc1C(=O)Nc1ccc(C(=O)N[C@H]2[C@@H]3CN(C(=O)N[C@H]4CNC[C@@H]4O)C[C@@H]32)c(Cl)c1` [Example 183, (1S,5R)-6-[[2-chloro-4-[[5-[1-[(1S)-2,2-difluorocyclopropyl]-3-(trifluoromethyl)pyrazol-4-yl]-1-methyl-imidazole-2-carbonyl]amino]benzoyl]amino]-N-[(3S,4S)-4-hydroxypyrrolidin-3-yl]-3-azabicyclo[3.1.0]hexane-3-carboxamide; Hydrochloride], the IC90 (Acinetobacter baumannii, ATCC17961, read-out: ATCC 17961 IC90, Acinetobacter baumannii ATCC 17961, Iso-Sensitest broth) came out at 170 nM.
On to `Cn1c(-c2cn(C3CC3(F)F)nc2C(F)(F)F)cnc1C(=O)Nc1ccc(C(=O)N[C@H]2[C@@H]3CN(C(=O)N4CCNCC4)C[C@@H]32)c(Cl)c1` (stereo partly drawn) [Example 184, N-(3-chloro-4-(((1R,5S,6s)-3-(piperazine-1-carbonyl)-3-azabicyclo[3.1.0]hexan-6-yl)carbamoyl)phenyl)-5-(1-(2,2-difluorocyclopropyl)-3-(trifluoromethyl)-1H-pyrazol-4-yl)-1-methyl-1H-imidazole-2-carboxamide], for which, under setting [1], the concentration for an effect of 90% (IC90) was 136 nM.
With `C=C(F)Cn1cc(-c2cnc(C(=O)Nc3ccc(C(=O)NCCCCCN)c(Cl)c3)n2C)c(C(F)(F)F)n1` [Example 185, N-(4-((5-aminopentyl)carbamoyl)-3-chlorophenyl)-5-(1-(2-fluoroallyl)-3-(trifluoromethyl)-1H-pyrazol-4-yl)-1-methyl-1H-imidazole-2-carboxamide hydrochloride], under setting [1], the concentration for an effect of 90% (IC90) worked out at 148 nM.
Take `Cn1c(-c2cn(C3CC3)nc2C(F)(F)F)cnc1C(=O)Nc1ccc(C(=O)NCCCCCCN)c(Cl)c1` [Example 187, N-(4-((6-aminohexyl)carbamoyl)-3-chlorophenyl)-5-(1-cyclopropyl-3-(trifluoromethyl)-1H-pyrazol-4-yl)-1-methyl-1H-imidazole-2-carboxamide hydrochloride]: under setting [1], the 90% effect concentration (IC90) is 151 nM.
On the same count and under the same terms, under `Cn1c(-c2cn(CC(F)F)nc2C(F)(F)F)cnc1C(=O)Nc1ccc(S(=O)(=O)N2CCNCC2)c(Cl)c1` [Example 188, N-(3-chloro-4-(piperazin-1-ylsulfonyl)phenyl)-5-(1-(2,2-difluoroethyl)-3-(trifluoromethyl)-1H-pyrazol-4-yl)-1-methyl-1H-imidazole-2-carboxamide hydrochloride] stands 152 nM.
Same read-out and setting: the value for `CN(CCCCN)C(=O)c1ccc(NC(=O)c2ncc(-c3cn(C4CC4)nc3C(F)(F)F)n2C)cc1Cl` [Example 190, N-(4-((4-aminobutyl)(methyl)carbamoyl)-3-chlorophenyl)-5-(1-cyclopropyl-3-(trifluoromethyl)-1H-pyrazol-4-yl)-1-methyl-1H-imidazole-2-carboxamide hydrochloride] was 173 nM; that for `Cn1c(-c2cn(C3CC3)nc2C(F)(F)F)cnc1C(=O)Nc1ccc(C(=O)N2CCC(CCN)CC2)c(Cl)c1` [Example 191, N-(4-(4-(2-aminoethyl)piperidine-1-carbonyl)-3-chlorophenyl)-5-(1-cyclopropyl-3-(trifluoromethyl)-1H-pyrazol-4-yl)-1-methyl-1H-imidazole-2-carboxamide formate] was 176 nM; that for `Cn1c(-c2cn(C3CC3(F)F)nc2C(F)(F)F)cnc1C(=O)Nc1ccc(C(=O)NC2CC3(CC(N)C3)C2)c(Cl)c1` (stereo not shown) [Example 193, N-(4-((6-aminospiro[3.3]heptan-2-yl)carbamoyl)-3-chlorophenyl)-5-(1-(2,2-difluorocyclopropyl)-3-(trifluoromethyl)-1H-pyrazol-4-yl)-1-methyl-1H-imidazole-2-carboxamide formate] was 188 nM.
Regarding `Cn1c(-c2cn(CC3CC3)nc2C(F)(F)F)cnc1C(=O)Nc1ccc(C(=O)N2CCN(C(=O)[C@H]3[C@@H]4CNC[C@@H]43)CC2)c(F)c1` [Example 194, rac-N-(4-(4-((1R,5S,6r)-3-azabicyclo[3.1.0]hexane-6-carbonyl)piperazine-1-carbonyl)-3-fluorophenyl)-5-(1-(cyclopropylmethyl)-3-(trifluoromethyl)-1H-pyrazol-4-yl)-1-methyl-1H-imidazole-2-carboxamide hydrochloride], the concentration for an effect of 90% (IC90) under setting [1] is 193 nM.
With `Cn1c(-c2cn(C3CC3)nc2C(F)(F)F)cnc1C(=O)Nc1ccc(C(=O)N2CC[C@H](CN)C2)c(Cl)c1` [Example 195, (R)-N-(4-(3-(aminomethyl)pyrrolidine-1-carbonyl)-3-chlorophenyl)-5-(1-cyclopropyl-3-(trifluoromethyl)-1H-pyrazol-4-yl)-1-methyl-1H-imidazole-2-carboxamide hydrochloride], the 90% effect concentration (IC90) under setting [1] was 202 nM.
Turning to `Cn1c(-c2cn(C3CC3(F)F)nc2C(F)(F)F)cnc1C(=O)Nc1ccc(C(=O)NCC2CC3CNCC3C2)c(Cl)c1` (stereo not shown) [Example 196, N-(3-chloro-4-(((octahydrocyclopenta[c]pyrrol-5-yl)methyl)carbamoyl)phenyl)-5-(1-(2,2-difluorocyclopropyl)-3-(trifluoromethyl)-1H-pyrazol-4-yl)-1-methyl-1H-imidazole-2-carboxamide formate], the IC90 under setting [1] was 202 nM.
As to `Cn1c(-c2cn(C3CC3)nc2C(F)(F)F)cnc1C(=O)Nc1ccc(C(=O)N2CCC(C3CNC3)CC2)c(Cl)c1` [Example 197, N-(4-(4-(azetidin-3-yl)piperidine-1-carbonyl)-3-chlorophenyl)-5-(1-cyclopropyl-3-(trifluoromethyl)-1H-pyrazol-4-yl)-1-methyl-1H-imidazole-2-carboxamide formate], the IC90 under setting [1] was 202 nM.
On the same count and under the same terms, the value for `Cn1c(-c2cn(CC(F)F)nc2C(F)(F)F)cnc1C(=O)Nc1ccc(S(=O)(=O)N2CCN(C(=O)[C@H]3C[C@H](O)CN3)CC2)c(Cl)c1` [Example 198, N-(3-chloro-4-((4-((2R,4S)-4-hydroxypyrrolidine-2-carbonyl)piperazin-1-yl)sulfonyl)phenyl)-5-(1-(2,2-difluoroethyl)-3-(trifluoromethyl)-1H-pyrazol-4-yl)-1-methyl-1H-imidazole-2-carboxamide hydrochloride] was 207 nM; that for `C=C(C)Cn1cc(-c2cnc(C(=O)Nc3ccc(C(=O)NCCCCN)c(Cl)c3)n2C)c(C(F)(F)F)n1` [Example 199, N-(4-((4-aminobutyl)carbamoyl)-3-chlorophenyl)-1-methyl-5-(1-(2-methylallyl)-3-(trifluoromethyl)-1H-pyrazol-4-yl)-1H-imidazole-2-carboxamide tris(2,2,2-trifluoroacetate)] was 213 nM; that for `Cn1c(-c2cn(C3CC3)nc2C(F)(F)F)cnc1C(=O)Nc1ccc(C(=O)N2CCN(C(=O)CN)CC2)c(Cl)c1` [Example 200, N-(3-chloro-4-(4-glycylpiperazine-1-carbonyl)phenyl)-5-(1-cyclopropyl-3-(trifluoromethyl)-1H-pyrazol-4-yl)-1-methyl-1H-imidazole-2-carboxamide hydrochloride] was 215 nM.
Still for that read-out and setting: under `Cn1c(-c2cn(C3CC3(F)F)nc2C(F)(F)F)cnc1C(=O)Nc1ccc(C(=O)N2CCC(F)(CN)CC2)c(Cl)c1` (stereo not shown) [Example 201, N-(4-(4-(aminomethyl)-4-fluoropiperidine-1-carbonyl)-3-chlorophenyl)-5-(1-(2,2-difluorocyclopropyl)-3-(trifluoromethyl)-1H-pyrazol-4-yl)-1-methyl-1H-imidazole-2-carboxamide formate] stands 216 nM; under `Cn1c(-c2cn(CC3CCC3)nc2C(F)(F)F)cnc1C(=O)Nc1ccc(C(=O)N2CCN(C(=O)CN)CC2)c(Cl)c1` [Example 202, N-(3-chloro-4-(4-glycylpiperazine-1-carbonyl)phenyl)-5-(1-(cyclobutylmethyl)-3-(trifluoromethyl)-1H-pyrazol-4-yl)-1-methyl-1H-imidazole-2-carboxamide hydrochloride], 216 nM; under `Cn1c(-c2cn(CC3CC3)nc2C(F)(F)F)cnc1C(=O)Nc1ccc(C(=O)N2CCN(C(=O)N[C@H]3C[C@@H](N)C3)CC2)c(Cl)c1` [Example 203, rac-N-((1s,3s)-3-aminocyclobutyl)-4-(2-chloro-4-(5-(1-(cyclopropylmethyl)-3-(trifluoromethyl)-1H-pyrazol-4-yl)-1-methyl-1H-imidazole-2-carboxamido)benzoyl)piperazine-1-carboxamide], 222 nM.
On the same count and under the same terms, under `Cn1c(-c2cn(C3CC3(F)F)nc2C(F)(F)F)cnc1C(=O)Nc1ccc(N2CCCC2=O)cc1` (stereo not shown) [Example 204, 5-(1-(2,2-difluorocyclopropyl)-3-(trifluoromethyl)-1H-pyrazol-4-yl)-1-methyl-N-(4-(2-oxopyrrolidin-1-yl)phenyl)-1H-imidazole-2-carboxamide] stands 223 nM; under `C=C(C)Cn1cc(-c2cnc(C(=O)Nc3ccc(C(=O)NCCCCCN)c(Cl)c3)n2C)c(C(F)(F)F)n1` [Example 205, N-(4-((5-aminopentyl)carbamoyl)-3-chlorophenyl)-1-methyl-5-(1-(2-methylallyl)-3-(trifluoromethyl)-1H-pyrazol-4-yl)-1H-imidazole-2-carboxamide hydrochloride], 224 nM; under `Cn1c(-c2cn(CC3CC3)nc2C(F)(F)F)cnc1C(=O)Nc1ccc(C(=O)N2CCN(C(=O)[C@@H]3CC[C@@H](N)C3)CC2)c(Cl)c1` [Example 206, N-(4-(4-((1R,3R)-3-aminocyclopentane-1-carbonyl)piperazine-1-carbonyl)-3-chlorophenyl)-5-(1-(cyclopropylmethyl)-3-(trifluoromethyl)-1H-pyrazol-4-yl)-1-methyl-1H-imidazole-2-carboxamide], 224 nM.
Regarding `Cn1c(-c2cn(C3CC3)nc2C(F)(F)F)cnc1C(=O)Nc1ccc(C(=O)N2CCC(CN)CC2)c(Cl)c1` [Example 207, N-(4-(4-(aminomethyl)piperidine-1-carbonyl)-3-chlorophenyl)-5-(1-cyclopropyl-3-(trifluoromethyl)-1H-pyrazol-4-yl)-1-methyl-1H-imidazole-2-carboxamide formate], under setting [1], the IC90 stood at 226 nM.
